These are literature values, as cited in US7091182B2, “Method for assisting in differential diagnosis and treatment of autistic syndromes” (Repligen Corporation, priority 1997, dated 2006).

This series relates to autistic patients. The note with it: cited from earlier work.

As to `O=C1CC[C@@]2(O)[C@H]3Cc4ccc(O)c5c4[C@@]2(CCN3CC2CC2)[C@H]1O5` [naltrexone], the social behavior result (double-blinded studies) is on record as “failed to produce significant changes”. The positive response (open trial in autistic children) is given as 8 to 10 children were judged to show a positive response.
